Reference: patent US20240376074A1, “NAMPT INHIBITORS AND USES THEREOF” (Remedy Plan, Inc., priority 2021, published 2024)

Molecular target: T1, NAMPT (Homo sapiens, UniProt P43490)
T1 construct: purchased Abcam ab221819
Assay: NAMPT Activity Assay (Abcam #ab221819)
Type: biochemical
Conditions: purified NAMPT, percent inhibition from OD450 nm; compound concentration not given
Method: The NAMPT Activity Assay (Abcam #ab221819) was performed following manufacturers two-step reaction protocol. Briefly, compounds were added to a clear 96-well plate using the HP D300e Digital Dispenser. Purified NAMPT was added to all wells except the No NAMPT controls. Reaction Mix #1 was added to each well and the plate was incubated at 30*C for 1 hr followed by the addition of Reaction Mix #2. Absorbance was measured at OD450 nm using a multimode plate reader. Readings were recorded for 5 minutes and percent inhibition was calculated using: (1-(OD450 nm compound/OD450nm no drug))*100.

T1 sequence (P43490 whole entry): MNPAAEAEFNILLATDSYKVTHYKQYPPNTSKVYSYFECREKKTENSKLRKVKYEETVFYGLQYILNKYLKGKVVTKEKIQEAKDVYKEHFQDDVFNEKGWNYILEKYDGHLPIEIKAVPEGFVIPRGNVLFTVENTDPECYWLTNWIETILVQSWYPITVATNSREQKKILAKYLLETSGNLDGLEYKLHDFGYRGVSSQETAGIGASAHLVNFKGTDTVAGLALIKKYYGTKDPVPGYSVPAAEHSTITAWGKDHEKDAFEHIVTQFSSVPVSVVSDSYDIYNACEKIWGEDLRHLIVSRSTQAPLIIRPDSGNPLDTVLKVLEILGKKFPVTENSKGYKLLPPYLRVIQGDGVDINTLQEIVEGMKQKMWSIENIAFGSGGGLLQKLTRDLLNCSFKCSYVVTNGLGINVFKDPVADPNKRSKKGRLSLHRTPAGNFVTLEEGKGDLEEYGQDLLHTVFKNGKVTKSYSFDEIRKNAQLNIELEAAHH

NAMPT Inhibition Code* | SMILES
A (*A = <33% inhibition) | CC(=O)N(CC1CC1)c1ccc(-c2ccc(C(=O)NCc3nccs3)cn2)cc1Cl [I-T2356, 6-[4-[acetyl(cyclopropylmethyl)amino]-3-chloro-phenyl]-N-(thiazol-2-ylmethyl)pyridine-3-carboxamide]
A (*A = <33% inhibition) | CC(=O)N(CC1CC1)c1ccc(-c2ccc(C(=O)NCc3cc[nH]n3)cn2)cc1Cl [I-T2132, 6-[4-[Acetyl(cyclopropylmethyl)amino]-3-chloro-phenyl]-N-(1H-pyrazol-3-ylmethyl)pyridine-3-carboxamide]
C (C = ≥66% inhibition) | COC(=O)c1cc(-c2ccc(C(=O)NCCCc3cn[nH]c3)cn2)ccc1N(CC1CC1)C(C)=O [I-T2298, Methyl 2-[acetyl(cyclopropylmethyl)amino]-5-[5-[3-(1H-pyrazol-4-yl)propylcarbamoyl]-2-pyridyl]benzoate]
C (C = ≥66% inhibition) | CC(=O)N(CC1CC1)c1ccc(-c2ccc(C(=O)NCCCc3cn[nH]c3)cn2)cc1C(F)(F)F [I-T2304, 6-[4-[Acetyl(cyclopropylmethyl)amino]-3-(trifluoromethyl)phenyl]-N-[3-(1H-pyrazol-4-yl)propyl]pyridine-3-carboxamide]
C (C = ≥66% inhibition) | CC(=O)N(CC1CC1)c1ccc(-c2ccc(NC(=O)COc3cccnc3)cn2)cc1Cl [I-T2119, N-[6-[4-[acetyl(cyclopropylmethyl)amino]-3-chloro-phenyl]-3-pyridyl]-2-(3-pyridyloxy)-acetamide]
C (C = ≥66% inhibition) | CC(=O)N(CC1CC1)c1ccc(-c2ccc(C(=O)NCC3CCCCC3)cn2)cc1Cl [I-T2337, 6-[4-[acetyl(cyclopropylmethyl)amino]-3-chloro-phenyl]-N-(cyclohexylmethyl)pyridine-3-carboxamide]
A (*A = <33% inhibition) | CC(=O)N(CC1CC1)c1ccc(-c2ccc(C(=O)NCc3cncnc3)cn2)cc1Cl [I-T2147, 6-[4-[Acetyl(cyclopropylmethyl)amino]-3-chloro-phenyl]-N-(pyrimidin-5-ylmethyl)pyridine-3-carboxamide]
C (C = ≥66% inhibition) | CC(=O)N(CC1CC1)c1ccc(-c2ccc(C(=O)NCCCc3cc[nH]n3)cn2)cc1Cl [I-T2127, 6-[4-[Acetyl(cyclopropylmethyl)amino]-3-chloro-phenyl]-N-[3-(1H-pyrazol-3-yl)propyl]pyridine-3-carboxamide]
C (C = ≥66% inhibition) | CC(=O)N(CC1CC1)c1ccc(-c2ccc(C(=O)NCc3ccc(C#N)nc3)cn2)cc1Cl [I-T2371, 6-[4-[acetyl(cyclopropylmethyl)amino]-3-chloro-phenyl]-N-[(6-cyano-3-pyridyl)methyl]pyridine-3-carboxamide]
A (*A = <33% inhibition) | CC(=O)N(CC1CC1)c1ccc(-c2ccc(C(=O)N3Cc4ccncc4C3)cn2)cc1Cl [I-T2138, N-[2-Chloro-4-[5-(1,3-dihydropyrrolo[3,4-c]pyridine-2-carbonyl)-2-pyridyl]phenyl]-N-(cyclopropylmethyl)acetamide]
C (C = ≥66% inhibition) | CC(=O)N(CC1CC1)c1ccc(-c2ccc(C(=O)NCCC3CCCCC3)cn2)cc1Cl [I-T2348, 6-[4-[acetyl(cyclopropylmethyl)amino]-3-chloro-phenyl]-N-(2-cyclohexylethyl)pyridine-3-carboxamide]
C (C = ≥66% inhibition) | CC(=O)N(CC1CC1)c1ccc(-c2ccc(C(=O)NCCc3ccncc3)cn2)cc1Cl [I-T2308, 6-[4-[Acetyl(cyclopropylmethyl)amino]-3-chloro-phenyl]-N-[2-(4-pyridyl)ethyl]pyridine-3-carboxamide]
C (C = ≥66% inhibition) | COC(=O)c1cc(-c2ccc(C(=O)NCCCc3cc[nH]n3)cn2)ccc1N(CC1CC1)C(C)=O [I-T2299, Methyl 2-[acetyl(cyclopropylmethyl)amino]-5-[5-[3-(1H-pyrazol-3-yl)propylcarbamoyl]-2-pyridyl]benzoate]
B (B = >33 to <66% inhibition) | CC(=O)N(CC1CC1)c1ccc(-c2ccc(C(=O)NCCc3ccc(C)nc3)cn2)cc1Cl [I-T2309, 6-[4-[Acetyl(cyclopropylmethyl)amino]-3-chloro-phenyl]-N-[2-(6-methyl-3-pyridyl)ethyl]pyridine-3-carboxamide]
C (C = ≥66% inhibition) | CC(=O)N(CC(F)F)c1ccc(-c2ccc(C(=O)NCCCn3ccnc3)cn2)cc1Cl [I-T2288, 6-[4-[Acetyl(2,2-difluoroethyl)amino]-3-chloro-phenyl]-N-(3-imidazol-1-ylpropyl)pyridine-3-carboxamide]
C (C = ≥66% inhibition) | COC(=O)c1cc(-c2ccc(C(=O)NCCCn3ccnc3)cn2)ccc1N(CC1CC1)C(C)=O [I-T2300, Methyl 2-[acetyl(cyclopropylmethyl)amino]-5-[5-(3-imidazol-1-ylpropylcarbamoyl)-2-pyridyl]benzoate]
A (*A = <33% inhibition) | CC(=O)N(CC1CC1)c1ccc(-c2ccc(C(=O)NCC3CCOC3)cn2)cc1Cl (centres unmarked) [I-T2115, 6-[4-[Acetyl(cyclopropylmethyl)amino]-3-chloro-phenyl]-N-(tetrahydrofuran-3-ylmethyl) pyridine-3-carboxamide]
C (C = ≥66% inhibition) | CC(=O)N(CC1CC1)c1ccc(-c2ccc(C(=O)NCCc3cccnc3)cn2)cc1C#N [I-T2305, 6-[4-[Acetyl(cyclopropylmethyl)amino]-3-cyano-phenyl]-N-[2-(3-pyridyl)ethyl]pyridine-3-carboxamide]

Continued, compound first:

SMILES | NAMPT Inhibition Code*
CC(=O)N(CC1COC1)c1ccc(-c2ccc(C(=O)NCc3ccccc3)cn2)cc1Cl [I-T2327, 6-[4-[acetyl(oxetan-3-ylmethyl)amino]-3-chloro-phenyl]-N-benzyl-pyridine-3-carboxamide] | A (*A = <33% inhibition)
CC(=O)N(CC(F)F)c1ccc(-c2ccc(NC(=O)Cc3cccnc3)cn2)cc1Cl [I-T2290, N-[6-[4-[acetyl(2,2-difluoroethyl)amino]-3-chloro-phenyl]-3-pyridyl]-2-(3-pyridyl) acetamide] | C (C = ≥66% inhibition)
CC(=O)N(CC(F)F)c1ccc(-c2ccc(C(=O)NCCCc3cn[nH]c3)cn2)cc1Cl [I-T2108, 6-[4-[Acetyl(2,2-difluoroethyl)amino]-3-chloro-phenyl]-N-[3-(1H-pyrazol-4-yl)propyl]pyridine-3-carboxamide] | C (C = ≥66% inhibition)
CC(=O)N(CC1CC1)c1ccc(-c2ccc(NC(=O)CCc3ccc(F)nc3)cn2)cc1Cl [I-T2384, N-[6-[4-[acetyl(cyclopropylmethyl)amino]-3-chloro-phenyl]-3-pyridyl]-3-(6-fluoro-3-pyridyl)propanamide] | B (B = >33 to <66% inhibition)
CC(=O)N(CC1CC1)c1ccc(-c2ccc(NC(=O)CCc3cccnc3F)cn2)cc1Cl [I-T2369] | C (C = ≥66% inhibition)
CC(=O)N(CC(F)F)c1ccc(-c2ccc(C(=O)NCCc3cn[nH]c3)cn2)cc1Cl [I-T2114, 6-[4-[Acetyl(2,2-difluoroethyl)amino]-3-chloro-phenyl]-N-[2-(1H-pyrazol-4-yl)ethyl]pyridine-3-carboxamide] | A (*A = <33% inhibition)
CC(=O)N(CC1CC1)c1ccc(-c2ccc(NC(=O)Cc3ccc(Cl)nc3)cn2)cc1Cl [I-T2391, N-[6-[4-[acetyl(cyclopropylmethyl)amino]-3-chloro-phenyl]-3-pyridyl]-2-(6-chloro-3-pyridyl)acetamide] | C (C = ≥66% inhibition)
CC(=O)N(CC1CC1)c1ccc(-c2ccc(NC(=O)Cc3ccc(Cl)cc3)cn2)cc1Cl [I-T2393, N-[6-[4-[acetyl(cyclopropylmethyl)amino]-3-chloro-phenyl]-3-pyridyl]-2-(4-chlorophenyl)acetamide] | C (C = ≥66% inhibition)
CC(=O)N(CC1CC1)c1ccc(-c2ccc(C(=O)N3Cc4ccccc4C3)cn2)cc1Cl [I-T2270, N-[2-Chloro-4-[5-(isoindoline-2-carbonyl)-2-pyridyl]phenyl]-N-(cyclopropylmethyl)acetamide] | B (B = >33 to <66% inhibition)
CC(=O)N(CC(F)F)c1ccc(-c2ccc(C(=O)Nc3cnc4nccn4c3)cn2)cc1Cl [I-T2201, 6-[4-[Acetyl(2,2-difluoroethyl)amino]-3-chloro-phenyl]-N-imidazo[1,2-a]pyrimidin-6yl-pyridine-3-carboxamide] | C (C = ≥66% inhibition)
CC(=O)N(CC1CC1)c1ccc(-c2ccc(C(=O)NC3Cc4ccccc4C3)cn2)cc1Cl [I-T2152, 6-[4-[Acetyl(cyclopropylmethyl)amino]-3-chloro-phenyl]-N-indan-2-yl-pyridine-3-carboxamide] | B (B = >33 to <66% inhibition)
CC(=O)N(CC1CC1)c1ccc(-c2ccc(C(=O)NC3Cc4ccc(Br)cc4C3)cn2)cc1Cl (centres unmarked) [I-T2153, 6-[4-[Acetyl(cyclopropylmethyl)amino]-3-chloro-phenyl]-N-(5-bromoindan-2-yl)pyridine-3-carboxamide] | A (*A = <33% inhibition)
CC(=O)N(CC1CC1)c1ccc(-c2ccc(NC(=O)Cc3ccc(F)cc3)cn2)cc1Cl [I-T2390, N-[6-[4-[acetyl(cyclopropylmethyl)amino]-3-chloro-phenyl]-3-pyridyl]-2-(4-fluorophenyl)acetamide] | B (B = >33 to <66% inhibition)
CC(=O)N(CC1CC1)c1ccc(-c2ccc(NC(=O)C(F)c3ccccc3)cn2)cc1Cl (centres unmarked) [I-T2331, N-[6-[4-[acetyl(cyclopropylmethyl)amino]-3-chloro-phenyl]-3-pyridyl]-2-fluoro-2-phenyl-acetamide] | B (B = >33 to <66% inhibition)
